# Values joined by “and” are separate entries in the source; they are usually repeats but may differ in a detail not shown here. Equal entries are not always repeated. Where two headings read alike, the source gives them in different places.
# Experiments:
# [1] = in vivo
# Description: (§1) For the toxicokinetic study, there were four groups of rabbit. […] Blood was collected and processed for plasma at predose, 5, 30, 60, 120, 240, and 360 minutes, and 24, 48, 72, 96, and 168 hours after administration.
# (§2) Approximately 1 mL of blood was collected by direct venipuncture of the jugular vein with a 3 mL syringe and 21 GA×1″ needle. Blood was immediately transferred into anticoagulant (potassium EDTA) coated microcentrifuge tubes. Blood was then centrifuged for five minutes at 3000×G at 4° C. Plasma was immediately separated into another microcentrifuge tube then kept in −20° C. freezer for LC-MS analysis.
# (§3) Briefly, the samples were assayed by Shimadzu SCL-10A controller with LC-10AD pump. The mobile phase was 50% by volume of 10 mM ammonium acetate and 50% by volume of methanol. The HPLC column was a)(Bridge Phenyl column, 5 μm, 50×2.0 mm. An isocratic elution was applied at 0.500 mL/min flow rate and column temperature was 30° C. […] The injection volume was 10 μL. […] The limit of quantitation (LOQ) of this method was 1 ng/mL.
# (§4) Toxicokinetic data analysis was based on standard noncompartmental pharmacokinetic methods. […] The maximum observed plasma concentration (Cmax) was determined by visual estimation from the data plot. Area under the plasma concentration vs. time curve from 0 to the time of the last measurable concentration (AUC) was calculated by the linear trapezoidal method. Elimination half-life (t1/2) was calculated as ln(2)/ke, where ke is the elimination rate constant determined by linear regression of the last three analytically measured points on the plasma concentration vs. time curve.
# [2] = tested on: rabbit coronary microvessel endothelium; conditions: cited from earlier work
# [3] = tested on: New Zealand White rabbits; conditions: rabbit, in vivo
# Description: Thirty six New Zealand White rabbits between 5 and 6 months of age were used for this study. […] Each group contained 12 rabbits, 6 males and 6 females. Rabbits were dosed in their right eye on study days 1, 2, 8, 15, 22 and 29 using a trans-scleral application system. Dosing was accomplished by filling the system with the appropriate test or control article and placing the applicator in full contact with the sclera of the right eye for 5 minutes. The contralateral eye served as an untreated control. Intraocular pressure (IOP) was measured via rebound tonometry in both eyes prior to dosing and within 5 minutes thereafter on days 1, 15 and 29. IOP was also measured the day after dosing on days 16 and 30 and in the recovery animals on day 43.
# [4] = tested on: New Zealand White (NZW) rabbits; conditions: rabbit, in vivo
# Description: This procedure was repeated 24 hours later with the shorter application duration of 5 minutes.
# Eight (4 male and 4 female) NZW rabbits, 5-6 months old, were assigned to two groups according to the following study design:
# [5] = tested on: New Zealand White rabbits; conditions: rabbit, in vivo; remark: listed apart in the source
# Description: For the ocular toxicity study, there were four groups. […] The total exposure was 12 doses over the period of 12 weeks. Clinical observations were performed on weekdays, and before and after each dosing. Following the final observations (i.e., one week after the last dose), the rabbits were sacrificed and the eyes were processed for histological evaluation.
# One drop of sterile proparacaine hydrochloride (a local anesthetic) was put on the eye (to be treated) 5 minutes before dose administration. […] The position of the device was checked to ensure that the active agent matrix was in immediate contact with the white part of the eye but not the cornea. Digital timers were used for accurate application times (i.e., 5, 10, or 20 minutes). After the given application duration, the applicator was carefully removed from the eye.
# All animals (both left and right eyes) were examined by indirect ophthalmoscopy of the cornea, conjunctiva, anterior chamber, vitreous, posterior chamber, and sclera. One to two drops each of phenylephrine hydrochloride and cyclopentolate hydrochloride were used as mydriatics. Observations on the anterior and posterior segments of the eye were made, graded, and recorded. A modified McDonald-Shadduck scale was used for grading eye irritation and ocular toxicity.
# The histopathological processing and evaluation were conducted at Colorado Histo-Prep (Fort Collins, Colo.). Briefly, a central cut of the eye globe was taken, as well as two cuts on either side of the central cut (calottes) at trim. For each eye, the central cut was placed into one cassette, and the two calottes were placed together into a separate cassette. The tissues were processed, embedded in paraffin wax, sectioned by microtome, and stained. Histopathology of the tissues was conducted on slides stained with hematoxylin and eosin. A pathologist who evaluated the tissues had no knowledge of the specific pharmacologic activity or formulation of the test articles. Standardized toxicological pathology criteria and nomenclature for the rabbit were used to categorize microscopic tissue changes.
# in vivo = conditions: rabbit
# Description: as §1, §2, §3, §4
# [6] = rabbit, in vivo, 1 mg; cited from earlier work
# [7] = human, in vivo, 1 mg; cited from earlier work
structure (smiles),measurement,setting,value
"C[C@@H]1C[C@H]2[C@@H]3CCC4=CC(=O)C=C[C@]4(C)[C@@]3(F)[C@@H](O)C[C@]2(C)[C@@]1(O)C(=O)CO [DEX, dexamethasone]",Tmax of DEX in plasma,[1]; rabbit,30 min
same,concentration that can inhibit prostaglandin release,[2],10^−7 M and ~40 ng/mL
"C[C@@H]1C[C@H]2[C@@H]3CCC4=CC(=O)C=C[C@]4(C)[C@@]3(F)[C@@H](O)C[C@]2(C)[C@@]1(O)C(=O)COP(=O)(O)O [DSP, dexamethasone sodium phosphate]",IOP effects related to dosing,[3],no IOP effects related to dosing
same,IOP increase (mild effect),"[4]; both, New Zealand White",5-8 mmHg
same,"IOP increase (absolute value) compared to control eye change, immediately after application","[4]; male, New Zealand White",2 mmHg
same,"IOP increase (absolute value) compared to control eye change, immediately after treatment","[4]; male, New Zealand White",8 mmHg
same,change in IOP within one hour after treatment,"[4]; male, New Zealand White",4 mmHg
same,effect on the IOP of the treated eye (statistical analysis),[4],no effect
same,time for IOP to return to a normal range after treatment,[4],within one half hour
same,time for IOP to return to below baseline after treatment,[4],within one half hour
same,time for IOP to return to normal after treatment,[4],within one half hour
same,corneal surface covered by corneal haze lesion,"[5]; New Zealand White, 4 weeks",about 40%
same,typical conjunctival injection score immediately after treatment,"[5]; New Zealand White, 12 weeks",1 or <1
same,Ocular Histopathology,[5],NSF
same,histopathology finding,[5],mild chronic inflammation at the limbus of the cornea
same,histopathology of eyes,[5],morphologically normal
same,"nature of ocular findings (conjunctival injection, discharge, corneal haze) in treated eyes",[5],transient and mild in nature
same,half-life of the drug in the rabbit,[1],120 to 180 min
same,Tmax,in vivo,5 min
same,Cmax after IV injection,[6],786 ng/mL
same,Cmax after IV injection,[7],10.5 ng/mL

# — patent US20190105194A1, “METHODS OF TREATING A SUBJECT WITH AN OCULAR CONDITION RESPONSIVE TO STEROID THERAPY” (Aciont Inc., priority 2017, published 2019)
